Structures are written as SMILES.

What all share (format): physicochemical
The nature of assay [1]: Kinetic study of the coupling reaction of sydnones with cyclic alkyne BCN in PBS/DMSO (HPLC). To be noted: for K (BCN), second order kinetic constant: PBS/DMSO (9:1), 100 μM sydnone, 150 μM BCN. As to the method:
(§1) The kinetics of the coupling reaction of different sydnones with two cyclic alkynes was studied, according to the following scheme.
(§2) Reactions of sydnones with BCN (or TMTH) were carried out in PBS/DMSO (9:1) mixtures at 100 μM concentration of sydnones and 150 μM concentration of BCN using the following procedure:
(§3) To 900 μL of phosphate buffered saline (PBS, 100 mM) was added 87.5 μL of DMSO, 10 μL of the solution of benzamide (internal standard, 100 mM in DMSO), 1 μL of the solution of sydnone (100 mM in DMSO) and 1.5 μL of the solution of BCN (100 mM in DMSO). The reaction mixture was injected in HPLC every 30 min and the conversion was followed by measuring the normalized sydnone peak area.
(§4) Second order reaction rate was determined by plotting ln([A]/[B])/([A]−[B]) versus time and analyzing by linear regression. Second order rate constant corresponds to the determined slope.

Assay [2] can be described thus: HPLC monitoring of the cycloaddition reaction with BCN in blood plasma. Conditions: 100 μM sydnone, 150 μM BCN, after 1 hour. As to the method:
Reactions of sydnone S1-2 with bicyclononyne BCN was carried out in blood plasma at 100 μM concentration of sydnone and 150 μM concentration of cyclooctyne BCN using the following procedure:
To 900 μL of blood plasma were added 10 μL of the solution of benzamide (internal standard, 100 mM in DMSO), 1 μL of the solution of sydnone (100 mM in DMSO) and 1.5 μL of the solution of BCN (100 mM in DMSO). The reaction mixture was injected in HPLC every 30 min and the conversion was followed by measuring the normalized sydnone peak area.

Assay [3] in a line: Kinetic study of the coupling reaction of sydnones with cyclic alkyne TMTH in PBS/DMSO (HPLC). Conditions: PBS/DMSO (9:1), 100 μM sydnone. As to the method: as §1, §2, §3, §4

Turning to `O=C(O)c1ccc(-[n+]2cc([O-])on2)cc1` [Sydnone S0-4, 3-(4-carboxyphenyl)-1,2,3λ^5-oxadiazol-3-ylium-5-olate, reference compound], in assay [1], the “K (BCN), second order kinetic constant” value was 0.059 ± 0.001 M⁻¹ s⁻¹.

With `O=C(O)c1ccc(-[n+]2noc([O-])c2Cl)cc1` [Sydnone S1-2, 3-(4-carboxyphenyl)-4-chloro-1,2,3λ^5-oxadiazol-3-ylium-5-olate], in assay [2], the “conversion of sydnone in reaction with BCN” value is on record as “almost complete reaction”. Moreover, the “ratio of K constant (BCN) to K constant of the corresponding sydnone not substituted in position 4” value in assay [1] (K(S1-1)/K(S0-3), K(S1-2)/K(S0-4)) is 27. The “K (BCN), second order kinetic constant” value in assay [1] came to 1.593 ± 0.034 M⁻¹ s⁻¹. In assay [3], the “K (TMTH), second order kinetic constant” value came out at 322 M⁻¹ s⁻¹.

As for `O=C(O)c1ccc(-[n+]2noc([O-])c2Br)cc1` [Sydnone S2-2, 4-bromo-3-(4-carboxyphenyl)-1,2,3λ^5-oxadiazol-3-ylium-5-olate], the “K (BCN), second order kinetic constant” value in assay [1] was 0.798 ± 0.065 M⁻¹ s⁻¹. Also, in assay [3], the “K (TMTH), second order kinetic constant” value came out at 101 M⁻¹ s⁻¹.

These data come from patent publication US20170081300A1, “SYDNONE DERIVATIVES FOR CONJUGATION OF COMPOUNDS OF INTEREST” (UNIVERSITE DE STRASBOURG, priority 2014, published 2017).
